# Key:
# Format in all cases: in vivo
# [1] = system: green peach aphid (Myzus persicae); experiment: Myzus test (MYZUPE spray treatment); details: spray on infested Chinese cabbage discs; for pest or weed control at 500 g/ha: Myzus persicae, in Brassica rapa, 120 h, after 5 days, read-out: Kill rate in % after 5 days; for Kill rate in % after 5 days: 500 g/ha
# Method: Myzus Test (MYZUPE Spray Treatment)
# (§1) Solvents: 78 parts by weight of acetone • • 1.5 parts by weight of dimethylformamide
# (§2) Emulsifier: 0.5 part by weight of alkylaryl polyglycol ether
# (§3) To produce a suitable preparation of active compound, 1 part by weight of active compound is mixed with the stated amounts of solvents and emulsifier, and the concentrate is diluted with emulsifier-containing water to the desired concentration.
# Discs of Chinese cabbage (Brassica pekinensis) which are infested by all stages of the green peach aphid (Myzus persicae) are sprayed with a preparation of active compound of the desired concentration.
# (§4) After the desired period of time, the effect in % is determined. 100% means that all aphids have been killed; 0% means that none of the aphids have been killed.
# On this test, for example, the following compounds of the Preparation Examples show good activity: see table
# [2] = system: caterpillars of the armyworm (Spodoptera frugiperda); experiment: Spodoptera frugiperda test (SPODFR spray treatment); details: 500 g/ha, sprayed maize leaf discs
# Method: Spodoptera frugiperda Test (SPODFR Spray Treatment)
# as §1, §2, §3
# Discs of maize leaves (Zea mays) are sprayed with a preparation of active compound of the desired concentration and, after drying, populated with caterpillars of the armyworm (Spodoptera frugiperda).
# After the desired period of time, the effect in % is determined. 100% means that all caterpillars have been killed; 0% means that none of the caterpillars have been killed.
# (§5) In this test, for example, the following compounds of the Preparation Examples show good activity: see table
# [3] = system: larvae of the mustard beetle (Phaedon cochleariae); experiment: Phaedon cochleariae test (PHAECO spray treatment); details: 500 g/ha, sprayed Chinese cabbage discs
# Method: Phaedon cochleariae Test (PHAECO Spray Treatment)
# as §1, §2, §3
# After the desired period of time, the effect in % is determined. 100% means that all beetle larvae have been killed; 0% means that none of the beetle larvae have been killed.
# as §5
# [4] = system: green peach aphid (Myzus persicae); experiment: Myzus persicae test, hydroponic treatment (MYZUPE sys.); details: 20 ppm, hydroponic treatment of pea plant
# Method: Myzus persicae Test, Hydroponic Treatment (MYZUPE sys.)
# (§6) Solvent: 7 parts by weight of dimethylformamide
# (§7) Emulsifier: 2 parts by weight of alkylaryl polyglycol ether
# (§8) To produce a suitable preparation of active compound, 1 part by weight of active compound is mixed with the stated amounts of solvent and emulsifier, and the concentrate is diluted with emulsifier-containing water to the desired concentration.
# The preparation of active compound is mixed with water. The stated concentration refers to the amount of active compound per volume unit of […] (mg/l=ppm). The treated water is filled into containers housing a pea plant (Pisum sativum) which is then infected with the green peach aphid (Myzus persicae).
# (§9) After the desired period of time, the kill in % is determined. 100% means that all aphids have been killed; 0% means that none of the aphids have been killed.
# (§10) In this test, for example, the following compounds of the Preparation Examples show good activity: see table.
# [5] = system: cotton aphid (Aphis gossypii); experiment: Aphis gossypii test (APHIGO), leaf dipping; details: cotton leaves dipped
# Method: (§11) Aphis gossypii Test (APHIGO)
# Solvent: 7 parts by weight of dimethylformrnamide
# as §7, §8
# Cotton leaves (Gossypium hirsutum) which are heavily infested by the cotton aphid (Aphis gossypii) are treated by being dipped into the preparation of active compound of the desired concentration.
# as §9, §10
# [6] = system: green peach aphid (Myzus persicae); experiment: Myzus test; oral (MYZUPE O); details: 100 ppm, oral (sucking at the preparation)
# Method: Myzus Test; Oral; (MYZUPE O)
# Solvent: 80 parts by weight of acetone
# To produce a suitable preparation of active compound, 1 part by weight of active compound is mixed with the stated amounts of solvent and emulsifier, and the concentrate is diluted with water to the desired concentration.
# Containers are populated with all stages of the green peach aphid (Myzus persicae), the treatment is by sucking at the preparation of active compound of the desired concentration.
# as §4, §5
# [7] = system: Lucilia cuprina larvae; experiment: Lucilia cuprina test (LUCICU); details: 100 ppm, treated horse meat
# Method: Lucilia cuprina Test (LUCICU)
# Solvent: dimethyl sulphoxide
# To produce a suitable preparation of active compound, 1 part by weight of active compound is mixed with the stated amount of water and the concentrate is diluted with water to the desired concentration.
# Containers containing horse meat treated with the preparation of active compound of the desired concentration are populated with Lucilia cuprina larvae.
# After the desired period of time, the kill in % is determined. 100% means that all larvae have been killed; 0% means that none of the larvae have been killed.
# as §10
# [8] = system: cotton aphid (Aphis gossypii); experiment: Aphis gossypii test (APHIGO), spraying; details: 12 g/ha, cotton leaves sprayed
# Method: as §11, §6
# Emulsifier: 1 part by weight of alkylaryl polyglycol ether
# as §8
# Cotton leaves (Gossypium hirsutum) which are heavily infested by the cotton aphid (Aphis gossypii) are treated by spraying with the preparation of active compound at the stated concentration.
# After the desired period of time, the kill in % is determined. 100% means that all animals have been killed; 0% means that none of the animals have been killed.
# as §5
# [9] = system: greenhouse red spider mite (Tetranychus urticae); experiment: Tetranychus test, OP-resistant (TETRUR spray treatment); details: 500 g/ha, sprayed bean leaf discs
# Method: Tetranychus Test, OP-Resistant (TETRUR Spray Treatment)
# as §1, §2, §3
# Discs of bean leaves (Phaseolus vulgaris) which are infested by all stages of the greenhouse red spider mite (Tetranychus urticae) are sprayed with a preparation of active compound of the desired concentration.
# After the desired period of time, the effect in % is determined. 100% means that all spider mites have been killed; 0% means that none of the spider mites have been killed.
# as §10
compound,measurement,setting,value
O=C1C=C2[C@@H](CCCN2Cc2ccc(Cl)nc2)O1 [Example I-3],pest or weed control at 500 g/ha,[1],100%
same,Kill rate in % after 7 days,[2],100%
same,Kill rate in % after 7 days,[3],100%
O=C1OC2COCN(Cc3ccc(Cl)nc3)C2=C1Cl (stereo not shown) [Example I-8],pest or weed control at 500 g/ha,[1],100%
"O=C1C=C2C(CCCCN2Cc2ccc(Cl)nc2)O1 (stereo not shown) [Example I-7, 4-[(6-Chloropyridin-3-yl)methyl]-4,5,6,7,8,8a-hexahydro-2H-furo[3,2-b]-azepin-2-one]",pest or weed control at 500 g/ha,[1],100%
same,Kill rate in % after 6 days,[4],100%
same,Kill rate in % after 6 days,[5]; 100 ppm,95%
"O=C1C=C2C(=CCCN2Cc2ccc(Cl)nc2)O1 [Example I-20, 4-[(6-Chloropyridin-3-yl)methyl]-5,6-dihydrofuro[3,2-b]pyridin-2(4H)-one]",pest or weed control at 500 g/ha,[1],100%
same,Kill rate in % after 7 days,[3],100%
"O=C1C=C2C(CC=CN2Cc2ccc(Cl)nc2)O1 (stereo not shown) [Example I-18, 4-[(6-Chloropyridin-3-yl)methyl]-7,7a-dihydrofuro[3,2-b]pyridin-2(4H)-one]",pest or weed control at 500 g/ha,[1],100%
"O=C1C=C2C(OCCN2Cc2ccc(Cl)nc2)O1 (stereo not shown) [Example I-1, 1-[(6-Chloropyridin-3-yl)methyl]-2,3-dihydro-1H-furo[2,3-b][1,4]oxazin-6(4aH)-one]",pest or weed control at 500 g/ha,[1],100%
same,Kill rate in % after 5 days,[6],100%
"O=C1C=C2C(CC(Cl)CN2Cc2ccc(Cl)nc2)O1 (single isomer, unassigned) [Example I-17b, 4-[(6-Chloropyridin-3-yl)methyl]-6-chloro-5,6,7,7a-tetrahydrofuro[3,2-b]-pyridin-2(4H)-one]",Kill rate in % after 5 days,[1],90%
"O=CC1=C2C(CCCN2Cc2ccc(Cl)nc2)OC1=O (stereo not shown) [Example I-11, 3-Formyl-4-[(6-chloropyridin-3-yl)methyl]-5,6,7,7a-tetrahydrofuro [3,2-b]-pyridin-2(4H)-one]",pest or weed control at 500 g/ha,[1],100%
"O=C1C=C2C(CC(Cl)CN2Cc2ccc(Cl)nc2)O1 (single isomer, unassigned) [Example I-17a, 4-[(6-Chloropyridin-3-yl)methyl]-6-chloro-5,6,7,7a-tetrahydrofuro[3,2-b]-pyridin-2(4H)-one]",pest or weed control at 500 g/ha,[1],100%
same,Kill rate in % after 7 days,[3],100%
"O=C1C=C2C(CCCN2Cc2ccc(Cl)nc2)O1 (stereo not shown) [Example I-2, 4-[(6-Chloropyridin-3-yl)methyl]-5,6,7,7a-tetrahydrofuro[3,2-b]pyridin-2(4H)-one]",pest or weed control at 500 g/ha,[1],100%
same,Kill rate in % after 7 days,[2],100%
same,Kill rate in % after 6 days,[4],100%
same,Kill rate in % after 6 days,[5]; 20 ppm,95%
same,Kill rate in % after 2 days,[7],100%
same,Kill rate in % after 7 days,[8],85%
O=C1CC2OC(=O)C=C2N(Cc2ccc(Cl)nc2)C1 (stereo not shown) [Example I-14],pest or weed control at 500 g/ha,[1],100%
same,Kill rate in % after 5 days,[6],100%
O=C1C=C2C(O1)C(O)CCN2Cc1ccc(Cl)nc1 (stereo not shown) [Example I-19],pest or weed control at 500 g/ha,[1],100%
O=C1OC2CCCN(Cc3ccc(Cl)nc3)C2=C1Cl (stereo not shown) [Example I-9],pest or weed control at 500 g/ha,[1],100%
same,Kill rate in % after 6 days,[4],100%
same,Kill rate in % after 6 days,[5]; 100 ppm,90%
same,Kill rate in % after 2 days,[7],80%
"CC1CC2OC(=O)C=C2N(Cc2ccc(Cl)nc2)C1 (single isomer, unassigned) [Example I-12b, 4-[(6-Chloropyridin-3-yl)methyl]-6-methyl-5,6,7,7a-tetrahydrofuro[3,2-b]-pyridin-2(4H)-on]",Kill rate in % after 5 days,[1],100%
same,Kill rate in % after 5 days,[6],100%
same,Kill rate in % after 6 days,[9],90%
"CC12CCCN(Cc3ccc(Cl)nc3)C1=CC(=O)O2 (stereo not shown) [Example I-10, 4-[(6-Chloropyridin-3-yl]methyl]-7a-methyl-5,6,7,7a-tetrahydrofuro[3,2-b]-pyridin-2(4H)-one]",pest or weed control at 500 g/ha,[1],100%
"O=C1C=C2C(CC=CCN2Cc2ccc(Cl)nc2)O1 (stereo not shown) [Example I-6, 4-[(6-Chloropyridin-3-yl)methyl]-4,5,8,8a-tetrahydro-2H-furo[3,2-b]azepin-2-one]",pest or weed control at 500 g/ha,[1],100%
same,Kill rate in % after 2 days,[7],100%
O=C1C=C2[C@H](CCCN2Cc2ccc(Cl)nc2)O1 [Example I-4],pest or weed control at 500 g/ha,[1],100%
same,Kill rate in % after 7 days,[3],100%
O=C1C=C2C(CC(F)(F)CN2Cc2ccc(Cl)nc2)O1 (stereo not shown) [Example I-15],pest or weed control at 500 g/ha,[1],100%
"CC1CC2OC(=O)C=C2N(Cc2ccc(Cl)nc2)C1 (single isomer, unassigned) [Example I-12a, 4-[(6-Chloropyridin-3-yl)methyl]-6-methyl-5,6,7,7a-tetrahydrofuro[3,2-b]-pyridin-2(4H)-on]",pest or weed control at 500 g/ha,[1],100%
same,Kill rate in % after 5 days,[6],100%

# Source: US7951951B2, “Bicyclic enamino(thio)carbonyl compounds” (Bayer Cropscience AG, priority 2006, dated 2011)
